Reference: PMC6013238, “Development of novel NEMO-binding domain mimetics for inhibiting IKK/NF-κB activation” (PLoS Biology, 2018)
Values joined by “and” are separate entries in the source; they are usually repeats but may differ in a detail not shown here. Identical values can stand only once.

What was measured:
[1] = Stability time course in FBS media with or without acetonitrile; type: in vitro ADME
Procedure: To confirm that the NBD mimetics reduce IKK kinase activity, phosphorylation of IκBα by IKK in response to 10 ng/ml of TNF-α was measured by western blot at 0, 5, and 10 min after stimulation. […] To determine whether the mimetics also reduce NF-κB DNA binding activity, electrophoretic mobility shift assay (EMSA) was conducted both in vitro and in vivo. […] The addition of acetonitrile increased the stability of both ZINC compounds, especially ZINC 5 (Fig 3D).
Fig 3 Two identified small molecules reduce NF-κB DNA binding activity in vivo and in vitro. (A) Levels of p-IκBα with or without treatment in response to TNF-α were determined by western blot analysis. HEK293 cells were pretreated with DMSO, ZINC12909780 (100 μM), and ZINC5 (100 μM) for 30 min followed by the stimulation of 10 ng/ml of TNF-α for 0, 5, and 10 min. Cell lysates were prepared for immunoblot against p-IκBα. GAPDH was used as a loading control. (B) EMSA analysis detecting NF-κB DNA binding activity was performed in C2C12 myoblasts. Cells were pretreated with 200 μM of DMSO, ZINC12909780, and ZINC5 in serum-free media for 1 h. TNF-α was then added to a final concentration of 10 ng/ml and incubated for 15 min. Nuclear extract was obtained for EMSA analysis. (C) EMSA analysis assessing NF-κB DNA binding activity in vivo was performed with quadriceps from mdx mice. Single-dose ZINC12909780 and ZINC5 at 10 mg/kg was given by i.p. Quadriceps was harvested at 1 h and 2 h post injection for EMSA analysis. (D) The time-course pharmacokinetics of ZINC5 and ZINC12909780 in FBS media or FBS media containing acetonitrile. Underlying data can be found in S1 Data. EMSA, electrophoretic mobility shift assay; HEK293, human embryonic kidney 293 cells; i.p., intraperitoneal; NF-κB, nuclear factor κB; t1/2, half-life; TNF-α; tumor necrosis factor α.

[2] = Body weight of chronically treated mdx mice; conditions: in g (unit assumed); for Body weight AVG: group average (FigS3A); for Body weight: individual mouse (FigS3A)
mdx mice = test: Chronic treatment of mdx mice, forelimb grip strength test; type: in vivo, mouse; conditions: Fig 7G, single mice
Source text: Fig 7 NBD mimetics improve muscular pathology and grip strength in mdx mice. (A) Shown is the treatment regimen with NBD mimetics in mdx mice. (B) Hematoxylin–eosin staining of TA muscle from 7-wk-old, treated or untreated mdx mice. Images were taken at magnification of 20×. Representative images were shown for each treatment group. […] (E) TA muscle from 7-wk-old, treated or untreated mdx mice was stained with laminin by IHC to outline myofibers. Overall images of TA muscle were shown on the left side, and the inset panel images were shown on the right side. (F) Quantitation of minimum Feret diameter in centrally and noncentrally nucleated myofibers. (G) Forelimb force determined by grip strength test. Five-wk-old (2 wk post treatment) and 7-wk-old (4 wk post treatment) mdx mice, treated or untreated, were tested for forelimb grip strength. Five sequential tests were performed, and the force was normalized to body weight. Data were shown as mean +/− SEM. Dosages used are as follows: SR12343 (30 mg/kg), SR12460 (30 mg/kg), and 8K-NBD peptide (10 mg/kg). n = 6–7 each group. *P < 0.05, **P < 0.01. Underlying data can be found in S1 Data. eMyHC, embryonic myosin heavy chain; IHC, immunohistochemistry; NBD, NEMO-binding domain; NEMO, NF-κB essential modulator; Pax7, paired box protein 7; qRT-PCR, quantitative real-time polymerase chain reaction; TA, tibialis anterior. To determine whether the NBD mimetics improved muscle strength, grip strength was measured 2 wk and 4 wk post treatment to assess forelimb strength (Fig 7G). […] Seven-wk-old treated or untreated mdx mice were measured for forelimb grip strength by using a digital grip strength meter paired with a metal grid (Bioseb, Vitrolles, France). Mice were allowed to grip the metal grid tightly, and readings were obtained by gently pulling the tail backward until release. Five sequential measurements were performed, and the average force was calculated.

Structure (SMILES)	Stability in cell culture media containing FBS [1]	Body weight AVG ([2]; Day 21)	Body weight ([2]; Day 21)	Body weight AVG ([2]; Day 23)	Body weight ([2]; Day 23)	Body weight AVG ([2]; Day 26)	Body weight ([2]; Day 26)	Body weight AVG ([2]; Day 28)	Body weight ([2]; Day 28)	Body weight AVG ([2]; Day 30)	Body weight ([2]; Day 30)	Body weight AVG ([2]; Day 32)	Body weight ([2]; Day 32)	Body weight AVG ([2]; Day 34)	Body weight ([2]; Day 34)	Body weight AVG ([2]; Day 37)	Body weight ([2]; Day 37)	Body weight AVG ([2]; Day 39)	Body weight ([2]; Day 39)	Body weight AVG ([2]; Day 41)	other results
O=C(COC(=O)Cc1ccccc1F)Nc1ccc(Cl)cn1 [ZINC5]	extremely unstable	–	–	–	–	–	–	–	–	–	–	–	–	–	–	–	–	–	–	–	t1/2 ([1]; FBS-media): 1.5 h; t1/2 ([1]; FBS-media+acetonitrile): 10.8 h; % remaining ([1]; fbs-media+acetonitrile, 15 min): 77.2%; % remaining ([1]; fbs-media+acetonitrile, 30 min): 85.8%; % remaining ([1]; fbs-media+acetonitrile, 60 min): 86.3%; % remaining ([1]; fbs-media+acetonitrile, 240 min): 69.4%; % remaining ([1]; fbs-media, 15 min): 90.8%; % remaining ([1]; fbs-media, 30 min): 79.8%; % remaining ([1]; fbs-media, 60 min): 61.8%; % remaining ([1]; fbs-media, 240 min): 16.4%
Nc1ncccc1C(=O)OCC(=O)Nc1ccc(Cl)cc1F [ZINC12909780]	relatively more stable	–	–	–	–	–	–	–	–	–	–	–	–	–	–	–	–	–	–	–	remaining at 0.25 h ([1]; bovine, FBS media containing acetonitrile, fbs-media+acetonitrile, 15 min): 94.8%; remaining at 0.5 h ([1]; bovine, FBS media containing acetonitrile, fbs-media+acetonitrile, 30 min): 103%; remaining at 1 h ([1]; bovine, FBS media containing acetonitrile, fbs-media+acetonitrile, 60 min): 106%; remaining at 4 h ([1]; bovine, FBS media containing acetonitrile, fbs-media+acetonitrile, 240 min): 104%; half-life ([1]; bovine, cell culture media containing FBS, FBS-media): 15 h; remaining at 0.25 h ([1]; bovine, cell culture media containing FBS, fbs-media, 15 min): 101%; remaining at 0.5 h ([1]; bovine, cell culture media containing FBS, fbs-media, 30 min): 105%; remaining at 1 h ([1]; bovine, cell culture media containing FBS, fbs-media, 60 min): 92%; remaining at 4 h ([1]; bovine, cell culture media containing FBS, fbs-media, 240 min): 85%
O=C(CNCCc1cc(F)cc(F)c1)Nc1ccc(Cl)cn1 [SR12460]	–	8.34	8.5 and 8.8 and 6.9 and 9	9.96	10.5 and 9.7 and 8.5 and 10.3 and 10.8	11.42	12.6 and 10.7 and 10.9 and 11.3 and 11.6	13.58	14.1 and 14.6 and 13.2 and 12.6 and 13.4	14.92	16.1 and 13.5 and 14.9 and 14.4 and 15.7	18.56	20.3 and 16.4 and 20.2 and 18.3 and 17.6	19.58	21 and 17.1 and 21.1 and 18.8 and 19.9	20.22	22.2 and 18.3 and 19.3 and 19.1	21.5333	22.3 and 18.8 and 23.5	22.4	Body weight ([2]; Day 41): 23.1 and 19.5 and 24.6; Body weight AVG ([2]; Day 44): 22.7333; Body weight ([2]; Day 44): 23.7 and 19.3 and 25.2; Body weight AVG ([2]; Day 46): 23.7; Body weight ([2]; Day 46): 25 and 20.1 and 26; Forelimb grip strength, force normalized to body weight (mdx mice; 2 week post treatment): 5.738 and 3.226 and 3.35; Forelimb grip strength, force normalized to body weight (mdx mice; 4 week post treatment): 5.455 and 4.515 and 5.487 and 3.928 and 4.07 and 4.448
O=C(CNc1ccc(Cl)cn1)NCCc1cccc(Br)c1 [SR12343]	–	8.8	8.1 and 9 and 8.6 and 10 and 8.3	10.48	9.5 and 11.4 and 9.8 and 10.7 and 11	12.2	10.8 and 13.9 and 12.3 and 11.7	13.48	12.7 and 14.8 and 12.2 and 13.2 and 14.5	15.66	12.5 and 17.3 and 16.6 and 15.5 and 16.4	18.96	16.4 and 21.5 and 20 and 18 and 18.9	19.78	16.9 and 22.5 and 20.5 and 19.4 and 19.6	20.46	18.3 and 23 and 21.4 and 19.4 and 20.2	21.7333	18.2 and 24.1 and 22.9	22.4	Body weight ([2]; Day 41): 19.6 and 25 and 22.6; Body weight AVG ([2]; Day 44): 22.9667; Body weight ([2]; Day 44): 20 and 24.7 and 24.2; Body weight AVG ([2]; Day 46): 22.8667; Body weight ([2]; Day 46): 21 and 24 and 23.6; Forelimb grip strength, force normalized to body weight (mdx mice; 2 week post treatment): significantly improved forelimb strength; Forelimb grip strength, force normalized to body weight (mdx mice; 2 week post treatment, listed as SR 12343): 3.61 and 3.7248 and 3.659 and 4.054; Forelimb grip strength, force normalized to body weight (mdx mice; 4 week post treatment): 4.866 and 4.5019 and 4.825 and 4.175 and 4.644 and 3.675 and 4.427
